Assays:
[1] = target: T1, Vasoactive intestinal polypeptide receptor 1 (Homo sapiens, UniProt P32241); format: cell membranes, Membrane; details: ht-29; also: in other assays of this panel Not Active means under 50% inhibition at 10 µM
T1 sequence (P32241 whole entry): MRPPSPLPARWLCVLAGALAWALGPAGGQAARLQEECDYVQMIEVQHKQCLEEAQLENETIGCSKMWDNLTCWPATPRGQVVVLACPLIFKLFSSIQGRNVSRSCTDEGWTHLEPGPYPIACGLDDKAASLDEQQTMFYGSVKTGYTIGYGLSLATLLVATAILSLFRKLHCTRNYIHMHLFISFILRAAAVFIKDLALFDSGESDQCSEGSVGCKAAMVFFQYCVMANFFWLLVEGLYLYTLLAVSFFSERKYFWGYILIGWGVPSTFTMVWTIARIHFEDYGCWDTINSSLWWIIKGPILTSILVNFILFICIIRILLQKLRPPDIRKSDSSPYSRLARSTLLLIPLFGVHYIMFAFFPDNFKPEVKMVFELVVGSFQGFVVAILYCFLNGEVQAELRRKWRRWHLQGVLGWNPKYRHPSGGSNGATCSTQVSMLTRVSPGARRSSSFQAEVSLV

[2] = DRUGMATRIX: Calcium Channel Type L, Phenylalkylamine radioligand binding (ligand: [3H] (-)-Desmethoxyverapamil (D-888)); format: cell membranes, Rattus norvegicus, Wistar, Brain, Membrane; details: Not Active = under 50% inhibition at 10 µM
[3] = target: C-C chemokine receptor type 5 (Homo sapiens, UniProt P51681); format: cell membranes, Membrane; details: hek293; also: in other assays of this panel Not Active means under 50% inhibition at 10 µM
C-C chemokine receptor type 5, sequence (P51681 whole entry): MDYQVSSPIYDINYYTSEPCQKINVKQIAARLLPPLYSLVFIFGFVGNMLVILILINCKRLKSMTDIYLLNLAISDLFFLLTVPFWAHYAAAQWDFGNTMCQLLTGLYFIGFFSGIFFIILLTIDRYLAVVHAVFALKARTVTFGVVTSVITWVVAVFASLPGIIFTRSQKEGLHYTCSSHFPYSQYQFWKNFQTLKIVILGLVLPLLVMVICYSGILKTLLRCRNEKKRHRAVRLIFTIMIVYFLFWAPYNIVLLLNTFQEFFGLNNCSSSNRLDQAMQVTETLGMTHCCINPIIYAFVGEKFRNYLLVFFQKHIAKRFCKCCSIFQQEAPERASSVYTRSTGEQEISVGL

[4] = DRUGMATRIX: Glutamate, NMDA, Agonism radioligand binding (ligand: [3H] CGP-39653); format: cell membranes, Rattus norvegicus, Wistar, Cerebral cortex, Membrane; details: Not Active = under 50% inhibition at 10 µM
Melanocortin receptor 3 = Melanocortin receptor 3 (Homo sapiens, UniProt P41968); format: cell membranes, HEK293, Membrane; details: hek293; also: in other assays of this panel Not Active means under 50% inhibition at 10 µM
Melanocortin receptor 3, sequence (P41968 whole entry): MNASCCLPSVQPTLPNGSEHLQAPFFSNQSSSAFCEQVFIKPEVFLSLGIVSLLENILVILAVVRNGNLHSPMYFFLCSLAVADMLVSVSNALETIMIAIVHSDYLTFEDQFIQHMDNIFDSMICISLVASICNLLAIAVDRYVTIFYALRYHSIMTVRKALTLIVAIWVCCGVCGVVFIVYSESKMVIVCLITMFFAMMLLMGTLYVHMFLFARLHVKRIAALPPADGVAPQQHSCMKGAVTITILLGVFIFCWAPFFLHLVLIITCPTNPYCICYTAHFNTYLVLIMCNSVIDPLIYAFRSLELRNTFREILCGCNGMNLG

[5] = target: T2, Amine oxidase [flavin-containing] A (Homo sapiens, UniProt P21397); assay: DRUGMATRIX: Monoamine Oxidase MAO-A enzyme inhibition (substrate: Kynuramine); set-up: species or system BTI-TN-5B1-4; details: Not Active = under 50% inhibition at 10 µM
T2 sequence (P21397 whole entry): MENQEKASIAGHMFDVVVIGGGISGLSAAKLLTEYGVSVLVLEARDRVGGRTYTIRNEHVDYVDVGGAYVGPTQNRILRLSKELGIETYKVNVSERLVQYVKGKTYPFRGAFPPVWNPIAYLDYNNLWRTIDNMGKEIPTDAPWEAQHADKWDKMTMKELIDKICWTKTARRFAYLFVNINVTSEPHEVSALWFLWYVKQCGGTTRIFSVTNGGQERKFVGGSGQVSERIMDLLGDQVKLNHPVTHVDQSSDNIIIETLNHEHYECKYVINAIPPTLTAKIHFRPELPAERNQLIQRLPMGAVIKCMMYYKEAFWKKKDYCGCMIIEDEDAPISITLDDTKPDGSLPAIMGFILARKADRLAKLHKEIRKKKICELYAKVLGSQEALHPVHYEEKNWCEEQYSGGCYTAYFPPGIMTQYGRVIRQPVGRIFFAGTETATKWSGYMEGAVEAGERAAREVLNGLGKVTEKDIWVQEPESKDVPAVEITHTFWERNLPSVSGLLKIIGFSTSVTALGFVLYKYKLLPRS

[6] = target: Mitogen-activated protein kinase 14 (Homo sapiens, UniProt Q16539); set-up: species or system Escherichia coli;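 also: inhibition of p38alpha enzyme activity in a biochemical kinase assay, with myelin basic protein serving as substrate; in other assays of this panel Not Active means under 50% inhibition at 10 µM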
Mitogen-activated protein kinase 14, sequence (Q16539 whole entry): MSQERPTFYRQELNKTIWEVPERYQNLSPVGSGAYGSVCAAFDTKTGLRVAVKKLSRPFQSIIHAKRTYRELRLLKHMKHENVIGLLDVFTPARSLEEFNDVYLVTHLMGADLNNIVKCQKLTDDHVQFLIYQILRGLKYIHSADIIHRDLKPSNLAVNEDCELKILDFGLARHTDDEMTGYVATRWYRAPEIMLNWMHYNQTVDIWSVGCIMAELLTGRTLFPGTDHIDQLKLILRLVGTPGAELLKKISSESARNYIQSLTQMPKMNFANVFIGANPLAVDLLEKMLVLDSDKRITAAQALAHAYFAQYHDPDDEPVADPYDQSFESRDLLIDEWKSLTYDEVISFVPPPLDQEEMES

Cytochrome P450 2C9 = Cytochrome P450 2C9 (Homo sapiens, UniProt P11712); details: bti-tn-5b1-4; also: in other assays of this panel Not Active means under 50% inhibition at 10 µM
Cytochrome P450 2C9, sequence (P11712 whole entry): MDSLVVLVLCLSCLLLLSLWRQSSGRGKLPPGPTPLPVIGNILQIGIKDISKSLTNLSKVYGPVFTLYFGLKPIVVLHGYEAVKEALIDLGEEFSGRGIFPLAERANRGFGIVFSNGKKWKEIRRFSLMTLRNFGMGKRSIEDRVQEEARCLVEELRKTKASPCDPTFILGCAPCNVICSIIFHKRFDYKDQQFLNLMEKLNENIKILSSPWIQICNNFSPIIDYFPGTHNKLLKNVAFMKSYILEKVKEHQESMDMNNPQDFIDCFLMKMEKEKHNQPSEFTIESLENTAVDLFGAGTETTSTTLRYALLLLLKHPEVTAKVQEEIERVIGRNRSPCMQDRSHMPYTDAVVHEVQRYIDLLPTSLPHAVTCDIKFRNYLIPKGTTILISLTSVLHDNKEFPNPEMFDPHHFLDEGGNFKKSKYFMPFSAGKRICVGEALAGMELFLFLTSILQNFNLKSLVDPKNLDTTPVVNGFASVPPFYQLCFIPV

| Molecule | IC50 [1] | IC50 [2] | Ki [2] | IC50 [3] | IC50 [4] | Ki [4] | IC50 (Melanocortin receptor 3) | IC50 ([5]; bti-tn-5b1-4) | IC50 [6] | IC50 (Cytochrome P450 2C9) | Ki (Cytochrome P450 2C9) | IC50 ([5]; read-out: IC50) [µM] | Ki [1] | Ki [3] | Ki (Melanocortin receptor 3) | Ki ([5]; bti-tn-5b1-4) | Ki [6] |
| --- | --- | --- | --- | --- | --- | --- | --- | --- | --- | --- | --- | --- | --- | --- | --- | --- | --- |
| C#CC1(O)CC[C@H]2[C@@H]3CCC4=CC(=O)CC[C@@H]4[C@H]3CC[C@@]21CC (some centres not stated) [NORGESTREL] | Not Active | Not Active | Not Active | Not Active | Not Active | Not Active | Not Active | Not Active | Not Active | Not Active | Not Active |  |  |  |  |  |  |
| COC(=O)Nc1nc2ccc([S+]([O-])c3ccccc3)cc2[nH]1 (configuration not stated) [OXFENDAZOLE] | Not Active | Not Active | Not Active | Not Active | Not Active | Not Active | Not Active | Not Active | Not Active | Not Active | Not Active |  |  |  |  |  |  |
| CC(=O)O[C@H]1C(=O)[C@@]2(C)[C@H]([C@H](OC(=O)c3ccccc3)[C@]3(O)C[C@H](OC(=O)[C@H](O)[C@@H](NC(=O)c4ccccc4)c4ccccc4)C(C)=C1C3(C)C)[C@]1(OC(C)=O)CO[C@@H]1C[C@@H]2O [PACLITAXEL] | Not Active | Not Active | Not Active | Not Active | Not Active | Not Active | Not Active | Not Active | Not Active | Not Active | Not Active |  |  |  |  |  |  |
| C[n+]1ccc(-c2cc[n+](C)cc2)cc1.[Cl-].[Cl-] [PARAQUAT DICHLORIDE] | Not Active | Not Active | Not Active | Not Active | Not Active | Not Active | Not Active | Not Active | Not Active | Not Active | Not Active |  |  |  |  |  |  |
| CCn1cc(C(=O)O)c(=O)c2cnc(N3CCCC3)nc21 [PIROMIDIC ACID] | Not Active | Not Active | Not Active | Not Active | Not Active | Not Active | Not Active | Not Active | Not Active | Not Active | Not Active |  |  |  |  |  |  |
| C[n+]1ccccc1/C=N/O.[Cl-] [PRALIDOXIME CHLORIDE] | Not Active | Not Active | Not Active | Not Active | Not Active | Not Active | Not Active | Not Active | Not Active | Not Active | Not Active |  |  |  |  |  |  |
| COc1cc2nc(N3CCN(C(=O)c4ccco4)CC3)nc(N)c2cc1OC [PRAZOSIN] | Not Active | Not Active | Not Active | Not Active | Not Active | Not Active | Not Active | Not Active | Not Active | Not Active | Not Active |  |  |  |  |  |  |
| C[C@]12C=CC(=O)C=C1CC[C@@H]1[C@@H]2[C@@H](O)C[C@@]2(C)[C@H]1CC[C@]2(O)C(=O)CO [PREDNISOLONE] | Not Active | Not Active | Not Active | Not Active | Not Active | Not Active | Not Active | Not Active | Not Active | Not Active | Not Active |  |  |  |  |  |  |
| CC(=O)[C@H]1[C@H](C#N)C[C@H]2[C@@H]3CC=C4C[C@@H](O)CC[C@]4(C)[C@H]3CC[C@@]21C [PREGNENOLONE CARBONITRILE] | Not Active | Not Active | Not Active | Not Active | Not Active | Not Active | Not Active | Not Active | Not Active | Not Active | Not Active |  |  |  |  |  |  |
| CCCN(CCC)S(=O)(=O)c1ccc(C(=O)O)cc1 [PROBENECID] | Not Active | Not Active | Not Active | Not Active | Not Active | Not Active | Not Active | Not Active | Not Active | Not Active | Not Active |  |  |  |  |  |  |
| CCCOc1ccc(C(=O)OCCN(CC)CC)cc1N [PROPARACAINE] | Not Active | Not Active | Not Active | Not Active | Not Active | Not Active | Not Active |  | Not Active | Not Active | Not Active | 1.78 |  |  |  |  |  |
| Oc1cccc(O)c1O [PYROGALLOL] | Not Active | Not Active | Not Active | Not Active | Not Active | Not Active | Not Active | Not Active | Not Active | Not Active | Not Active |  |  |  |  |  |  |
| AURANOFIN | Not Active | Not Active | Not Active | Not Active | Not Active | Not Active | Not Active | Not Active | Not Active | Not Active | Not Active |  | Not Active | Not Active | Not Active | Not Active | Not Active |
| GADOPENTETATE DIMEGLUMINE | Not Active | Not Active | Not Active | Not Active | Not Active | Not Active | Not Active | Not Active | Not Active | Not Active | Not Active |  | Not Active | Not Active | Not Active | Not Active | Not Active |
| GENTAMICIN | Not Active | Not Active | Not Active | Not Active | Not Active | Not Active | Not Active | Not Active | Not Active | Not Active | Not Active |  | Not Active | Not Active | Not Active | Not Active | Not Active |
| GRAMICIDIN | Not Active | Not Active | Not Active | Not Active | Not Active | Not Active | Not Active | Not Active | Not Active | Not Active | Not Active |  | Not Active | Not Active | Not Active | Not Active | Not Active |
| NYSTATIN | Not Active | Not Active | Not Active | Not Active | Not Active | Not Active | Not Active | Not Active | Not Active | Not Active | Not Active |  | Not Active | Not Active | Not Active | Not Active | Not Active |
